Test results as given in patent US7709497B2, “Pyrazolo[3,4-b]pyridine compound, and its use as a PDE4 inhibitor” (Glaxo Group Limited, priority 2004, dated 2010).

Molecular target: PDE5 (human recombinant) (Homo sapiens, UniProt O76074)
Test: PDE5 inhibition (SPA or modified FP assay)
Assay type: biochemical
Settings: n = 1; accuracy ±about 0.5 log unit; read-out: PDE5 pIC50 (converted)
Description: Human recombinant PDE5 is disclosed in K. Loughney et al., “Isolation and characterisation of cDNAs encoding PDE5A, a human cGMP-binding, cGMP-specific 3′,5′-cyclic nucleotide phosphodiesterase”, Gene, 1998, 216, 139-147.
The ability of compounds to inhibit catalytic activity at PDE4B or 4D (human recombinant), PDE3 (from bovine aorta), PDE5 (human recombinant) or PDE6 (from bovine retina) can optionally be determined by Scintillation Proximity Assay (SPA) in a 96-well format.
Test compounds (as a solution in DMSO, preferably about 2 microliters (ul) volume of DMSO solution) are preincubated at ambient temperature (room temperature, e.g. 19-23° C.) in Wallac Isoplates (code 1450-514) with PDE enzyme in 50 mM Tris-HCl buffer pH 7.5, 8.3 mM MgCl2, 1.7 mM EGTA, 0.05% (w/v) bovine serum albumin for 10-30 minutes (usually 30 minutes). The enzyme concentration is adjusted so that no more than 20% hydrolysis of the substrate defined below occurs in control wells without compound, during the incubation. […] Bound radioactive product is measured using a WALLAC TRILUX 1450 Microbeta scintillation counter. […] Curves are analysed using ActivityBase and XLfit (ID Business Solutions Limited, 2 Ocean Court, Surrey Research Park, Guildford, Surrey GU2 7QB, United Kingdom) Results are expressed as pIC50 values. […]

- IC50: 490 nM
Structure (SMILES): CCn1ncc2c(NC3CCN(C(N)=O)CC3)c(C(=O)NCc3ccc(C)c(C)c3)cnc21 [compound of formula (I), 4-{[1-(aminocarbonyl)-4-piperidinyl]amino}-N-[(3,4-dimethylphenyl)methyl]-1-ethyl-1H-pyrazolo[3,4-b]pyridine-5-carboxamide]
